Experimental data taken from patent publication US5891848A, “Peptide fragments” (Nippon Zoki Pharmaceutical Co., Ltd., priority 1995, dated 1999).
No end group written: not given here.

What was measured:
[1] = tested on: neuronal death in the CA1 subfields of the hippocampus; assay: Protective effect on cerebral neurons after ischemic insult (common carotid artery occlusion); assay type: in vivo, Wister-strain rat; conditions: continuous intracerebroventricular infusion 850 μg/ml; carotid occlusion 15 minutes; histology five days after ischemia; 4 rats/group
Protocol: Additionally, the effects of the peptides of the present invention on neuronal death in the CA1 subfields of the hippocampus were tested as follows:
The peptide fragment of the present invention, the 1-29 amino acid residue peptide fragment of bovine aFGF in which Cys, an amino acid at the 16-position, was substituted with Ala or the 1-29 amino acid residue peptide fragment of bovine aFGF in which Cys, an amino acid at the 16-position, was substituted with Ser, was administered by continuous intracerebroventricular infusion (850 μg/ml. respectively) into the lateral cerebral ventricles of Wister-strain rat (250-300 g. 4 rats/a group) and their common carotid arteries were occluded for 15 minutes to induce ischemic insult. Five days after ischemia, the rats were deeply anesthetized with sodium pentobarbital and transcardially perfused. Then, the brains were frozen and cut coronally in 20 μm sections by microtomy, and stained by Nissl bodies. The sections were examined by histological analysis. As a result of the analyses, the protecting effect of the peptide of the present invention on neuronal death in the CA1 subfields of the hippocampus was observed (Ala-substituted peptide; 3/4 rats, Ser-substituted peptide; 4/4 rats).

[2] = tested on: senility-accelerated mice (SAM-P/8 strain); assay: Water maze task (Morris' water maze task); assay type: in vivo, mouse
From the text: A platform was placed at 1 cm under the water surface in a circular swimming pool for the experiment and then fine Styrofoam beads were uniformly sprinkled onto the water surface so that a mouse was unable to recognize the platform. Any hint to the mouse in the space around the device (such as persons in charge of the experiment, table, fluorescent light and machines for the experiment) was always kept constant during the experimental period. Four starting points were randomly selected, a mouse was placed into the water, turning its head to the wall of the pool, and its diving time until it escaped to the platform was measured. When the mouse climbed up to the platform, it was left as it was for 15 seconds. […] The case from one starting point was defined as one trial and four trials were done every ten minutes and defined as one block. Four blocks were carried out in total every other day. Senility-accelerated mice (SAM-P/8) which were not administered any compounds of the present invention were used as a control. […] After the above-menfioned four blocks were conducted, the platform was removed, the mouse was permitted to swim for a certain period, and the time for swimming in each of the four areas was measured. […] Therefore, the learning and remembering abilities could be determined measuring the staying time in each of the four areas.

[3] = tested on: senility-accelerated mice (SAM-P/8 strain); assay: Passive avoidance learning test; assay type: in vivo, mouse; conditions: SAM-P/8, sixth month after birth; s.c. once a week from third week after birth; group 1 150 μg/kg/day, group 2 80 μg/kg/day; test trial 24 hours after acquisition trial; compared to control (SAM-P/8); FIG. 1
Protocol: In a passive avoidance learning test, remembering ability of senility-accelerated mice of the SAM-P/8 strain decreases from the third month from birth. The effect of the peptide of the present invention for improving said learning disability was investigated. Thus, a mouse was placed in front of a dark box and its ability to remember what it learned was measured using the time it took to come into the box as an index. Electric current was turned on in the dark box after the mouse came into the box so that an electric shock was applied. […] The test trial was conducted 24 hours after the acquisition trial.
The peptide of the present invention was subcutaneously injected once a week since the third week after birth and its effect of improving the passive avoiding ability which was lowered in SAM-P/8 was investigated.

FNLPLGNYKKPKLLYASNGGTFLRILPDG
protecting effect on neuronal death in the CA1 subfields of the hippocampus observed [1]: 3/4 | diving time (latency) until escape to the platform, Block 1 to Block 4 ([2]; SAM-P/8, ninth month from birth, dosing as in passive avoidance test, compared to the decrease for control (SAM-P/8), FIG. 2): unexpectedly decreased | staying time in area 3, where the platform was located ([2]; SAM-P/8, platform removed after four blocks, compared to control (SAM-P/8), t-test p<0.001, FIG. 3): unexpectedly higher | latency (seconds): time until the mouse came into the dark box in the test trial [3]: unexpectedly higher
